Patent US10065970B2 (Genentech, Inc., priority 2015, dated 2018)

What follows are compounds tested against PI3Kα (alpha) (Homo sapiens (Human), UniProt P42336) (assay: p110α (alpha) PI3K Binding Assay (ADP-Glo lipid kinase reaction)). Settings: PI3K alpha 0.2 nM, ATP 40 μM, PIP2:3PS 50 μM, 120 min, room temperature; Ki by Morrison Equation; read-out: PI3Kα-(alpha) ATP (Ki) micromolar.
Type: biochemical
Description: The ability of a compound of the invention to act as an inhibitor of PI3Kα was determined using the methods of Example 901.
PI3K Binding assays are intended for determining the biochemical potency of small molecule PI3K inhibitors. The PI3K lipid kinase reaction is performed in the presence of PIP2:3PS lipid substrate (Promega #V1792) and ATP. Following the termination if the kinase reaction, turnover of ATP to ADP by the phosphorylation of the lipid substrate is detected using the Promega ADP-Glo™ (Promega #V1792) assay. Reactions are carried out using the following conditions:
After 120 minutes of reaction time, the kinase reaction is terminated. Any ATP remaining after the reaction is depleted, leaving only ADP. Then the Kinase Detection Reagent is added to convert ADP to ATP, which is used in a coupled luciferin/luciferase reaction. The luminescent output is measured and is correlated with kinase activity.
All reactions are carried out at room temperature. A 3 μl mixture (1:1) of enzyme/lipid substrate solution is added to a 384 well white assay plate (Perkin Elmer #6007299) containing 50 nl of test compound or DMSO only for untreated controls. The reaction is started by the addition of 2 μl ATP/MgCl2. The kinase reaction buffer contains 50 mM HEPES, 50 mM NaCl, 3 mM MgCl2, 0.01% BSA, 1% DMSO, and enzyme and substrate concentrations as indicated in the above table. The reaction is stopped by the addition of 10 μL ADP-Glo reagent. Plates are read in a Perkin Elmer Envision system using luminescence mode. 10 point dose response curves are generated for each test compound. Ki values for each compound are determined using the Morrison Equation.

PI3Kα (alpha), sequence (P42336 whole entry): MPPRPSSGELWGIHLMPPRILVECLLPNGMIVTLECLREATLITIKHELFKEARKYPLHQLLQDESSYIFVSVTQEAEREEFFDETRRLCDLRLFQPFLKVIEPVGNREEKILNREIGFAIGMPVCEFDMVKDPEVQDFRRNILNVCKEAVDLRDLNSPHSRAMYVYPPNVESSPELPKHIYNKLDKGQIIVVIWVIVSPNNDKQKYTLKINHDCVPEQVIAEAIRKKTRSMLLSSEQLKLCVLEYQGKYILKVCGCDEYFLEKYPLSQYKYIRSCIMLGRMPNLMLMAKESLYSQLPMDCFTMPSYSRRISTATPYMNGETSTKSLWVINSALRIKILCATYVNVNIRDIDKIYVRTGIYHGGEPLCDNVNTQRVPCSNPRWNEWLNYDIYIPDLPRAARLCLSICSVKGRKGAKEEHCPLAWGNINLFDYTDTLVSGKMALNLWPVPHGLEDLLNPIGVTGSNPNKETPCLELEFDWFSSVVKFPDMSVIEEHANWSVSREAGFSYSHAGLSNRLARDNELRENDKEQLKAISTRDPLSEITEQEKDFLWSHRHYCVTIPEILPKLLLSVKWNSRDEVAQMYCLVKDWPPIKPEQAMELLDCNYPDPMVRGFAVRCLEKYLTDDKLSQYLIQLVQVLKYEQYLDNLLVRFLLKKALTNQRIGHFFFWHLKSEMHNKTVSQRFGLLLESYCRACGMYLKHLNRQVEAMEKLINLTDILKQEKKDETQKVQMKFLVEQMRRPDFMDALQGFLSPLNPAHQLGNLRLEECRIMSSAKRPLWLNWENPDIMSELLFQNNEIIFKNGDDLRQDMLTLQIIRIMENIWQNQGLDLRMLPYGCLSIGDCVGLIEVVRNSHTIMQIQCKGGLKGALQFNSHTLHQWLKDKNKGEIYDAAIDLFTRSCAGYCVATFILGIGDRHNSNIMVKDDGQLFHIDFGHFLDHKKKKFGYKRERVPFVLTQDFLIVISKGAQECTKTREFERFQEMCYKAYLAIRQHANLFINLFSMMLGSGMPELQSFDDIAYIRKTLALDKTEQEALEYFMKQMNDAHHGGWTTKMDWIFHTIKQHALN
PI3Kα (alpha), sequence (P27986 whole entry partner): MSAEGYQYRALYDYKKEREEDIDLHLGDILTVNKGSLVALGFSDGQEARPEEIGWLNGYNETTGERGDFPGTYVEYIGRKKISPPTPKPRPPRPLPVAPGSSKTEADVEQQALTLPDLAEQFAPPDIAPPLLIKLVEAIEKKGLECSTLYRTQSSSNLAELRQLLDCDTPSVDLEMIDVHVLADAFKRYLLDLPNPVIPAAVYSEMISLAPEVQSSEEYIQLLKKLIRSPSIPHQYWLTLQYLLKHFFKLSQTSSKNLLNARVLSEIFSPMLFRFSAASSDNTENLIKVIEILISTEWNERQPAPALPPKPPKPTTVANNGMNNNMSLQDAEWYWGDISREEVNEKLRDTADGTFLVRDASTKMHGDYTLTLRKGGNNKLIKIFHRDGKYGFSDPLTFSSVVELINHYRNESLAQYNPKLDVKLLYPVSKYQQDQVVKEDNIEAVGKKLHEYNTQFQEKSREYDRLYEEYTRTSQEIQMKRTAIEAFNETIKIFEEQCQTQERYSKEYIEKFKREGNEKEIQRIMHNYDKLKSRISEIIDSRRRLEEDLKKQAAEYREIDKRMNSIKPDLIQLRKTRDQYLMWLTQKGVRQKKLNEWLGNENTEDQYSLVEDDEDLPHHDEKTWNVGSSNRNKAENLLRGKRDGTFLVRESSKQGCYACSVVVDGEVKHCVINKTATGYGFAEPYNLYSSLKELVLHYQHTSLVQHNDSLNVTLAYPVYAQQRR

| SMILES | Ki [nM] |
| --- | --- |
| NC(=O)[C@@H](Nc1cc2c3c(c1)nc(-c1ccc4c(c1)C(=O)NC4)n3CCCO2)C1CC1 [Example 115, (S)-2-Cyclopropyl-2-((1-(3-oxoisoindolin-5-yl)-8,9-dihydro-7H-6-oxa-2,9a-diazabenzo[cd]azulen-4-yl)amino)acetamide] | 36.7 |
| NC(=O)[C@@H](Nc1cc2c3c(c1)nc(-c1ccc4cncnc4c1)n3CCCO2)C1CC1 [Example 116, (S)-2-Cyclopropyl-2-((1-(quinazolin-7-yl)-8,9-dihydro-7H-6-oxa-2,9a-diazabenzo [cd]azulen-4-yl)amino) acetamide] | 19 |
| NC(=O)[C@@H](Nc1cc2c3c(c1)nc(-c1ccc4nccnc4c1)n3CCCO2)C1CC1 [Example 117, (S)-2-Cyclopropyl-2-((1-(quinoxalin-6-yl)-8,9-dihydro-7H-6-oxa-2,9a-diazabenzo[cd]azulen-4-yl)amino)acetamide] | 1.18 |
| NC(=O)[C@@H](Nc1cc2c3c(c1)nc(-c1ccc4ncncc4c1)n3CCCO2)C1CC1 [Example 119, (S)-2-Cyclopropyl-2-((1-(quinazolin-6-yl)-8,9-dihydro-7H-6-oxa-2,9a-diazabenzo[cd]azulen-4-yl)amino)acetamide] | 215 |
| NC(=O)[C@@H](Nc1cc2c3c(c1)nc(-c1ccc4nc(N)ncc4c1)n3CCCO2)C1CC1 [Example 120] | 5.34 |
| Cc1cc(-c2nc3cc(N[C@H](C(N)=O)C4CC4)cc4c3n2CCCO4)nc(CO)n1 [Example 123, (S)-2-Cyclopropyl-2-((1-(2-(hydroxymethyl)-6-methylpyrimidin-4-yl)-8,9-dihydro-7H-6-oxa-2,9a-diazabenzo[cd]azulen-4-yl)amino)acetamide] | 45 |
| CC(C)(C(N)=O)n1cc(-c2cc3c4c(c2)nc(-c2ccc5oc(N)nc5c2)n4CCCO3)cn1 [Example 124, 2-(4-(1-(2-Aminobenzo[d]oxazol-5-yl)-8,9-dihydro-7H-6-oxa-2,9a-diazabenzo[cd]azulen-4-yl)-1H-pyrazol-1-yl)-2-methylpropanamide] | 0.117 |
| NC(=O)[C@@H](Nc1cc2c3c(c1)nc(-c1ccc4c(c1)NC(=O)CO4)n3CCCO2)C1CC1 [Example 131, (S)-2-Cyclopropyl-2-((1-(3-oxo-3,4-dihydro-2H-benzo[b][1,4]oxazin-6-yl)-8,9-dihydro-7H-6-oxa-2,9a-diazabenzo[cd]azulen-4-yl)amino)acetamide] | 821 |
| NC(=O)[C@@H](Nc1cc2c3c(c1)nc(-c1ccc4[nH]ncc4c1)n3CCCO2)C1CC1 [Example 133, (S)-2-((1-(1H-Indazol-5-yl)-8,9-dihydro-7H-6-oxa-2,9a-diazabenzo[cd]azulen-4-yl)amino)-2-cyclopropylacetamide] | 43.4 |
| NC(=O)[C@@H](Nc1cc2c3c(c1)nc(-c1ccc4oc(N)nc4c1)n3CCCO2)C1CC1 [Example 135, (S)-2-((1-(2-Aminobenzo[d]oxazol-5-yl)-8,9-dihydro-7H-6-oxa-2,9a-diazabenzo[cd]azulen-4-yl)amino)-2-cyclopropylacetamide] | 0.076 |
| CS(=O)(=O)c1ccc(-c2nc3cc(N[C@H](C(N)=O)C4CC4)cc4c3n2CCCO4)cc1 [Example 137, (S)-2-Cyclopropyl-2-((1-(4-(methylsulfonyl)phenyl)-8,9-dihydro-7H-6-oxa-2,9a-diazabenzo[cd]azulen-4-yl)amino)acetamide] | 916 |
| NC(=O)[C@@H](Nc1cc2c3c(c1)nc(-c1cccc(OC(F)F)c1)n3CCCO2)C1CC1 [Example 143, (S)-2-Cyclopropyl-2-((1-(3-(difluoromethoxy)phenyl)-8,9-dihydro-7H-6-oxa-2,9a-diazabenzo[cd]azulen-4-yl)amino)acetamide] | 187 |

Further lines, results first:

| Ki [nM] | SMILES |
| --- | --- |
| 561 | N#Cc1cccc(-c2nc3cc(N[C@H](C(N)=O)C4CC4)cc4c3n2CCCO4)c1 [Example 118, (S)-2-((1-(3-Cyanophenyl)-8,9-dihydro-7H-6-oxa-2,9a-diazabenzo[cd]azulen-4-yl)amino)-2-cyclopropylacetamide] |
| 296 | Cc1ccncc1-c1nc2cc(N[C@H](C(N)=O)C3CC3)cc3c2n1CCCO3 [Example 122, (S)-2-Cyclopropyl-2-((1-(4-methylpyridin-3-yl)-8,9-dihydro-7H-6-oxa-2,9a-diazabenzo[cd]azulen-4-yl)amino)acetamide] |
| 221 | NC(=O)[C@@H](Nc1cc2c3c(c1)nc(-c1ccnnc1)n3CCCO2)C1CC1 [Example 125, (S)-2-Cyclopropyl-2-((1-(pyridazin-4-yl)-8,9-dihydro-7H-6-oxa-2,9a-diazabenzo [cd]azulen-4-yl)amino)acetamide] |
| 678 | NC(=O)[C@@H](Nc1cc2c3c(c1)nc(N1CCC(CO)CC1)n3CCCO2)C1CC1 [Example 126, (S)-2-Cyclopropyl-2-[1-(4-hydroxymethylpiperidin-1-yl)-8,9-dihydro-7H-6-oxa-2,9a-diazabenzo[cd]azulen-4-ylamino]acetamide] |
| 719 | NC(=O)[C@@H](Nc1cc2c3c(c1)nc(N1CCCCC1)n3CCCO2)C1CC1 [Example 127, (S)-2-Cyclopropyl-2-(1-piperidin-1-yl-8,9-dihydro-7H-6-oxa-2,9a-diazabenzo[cd]azulen-4-ylamino)acetamide] |
| 73.5 | COc1ncc(-c2nc3cc(N[C@H](C(N)=O)C4CC4)cc4c3n2CCCO4)cn1 [Example 128, (S)-2-cyclopropyl-2-((1-(2-methoxypyrimidin-5-yl)-8,9-dihydro-7H-6-oxa-2,9a-diazabenzo[cd]azulen-4-yl)amino)acetamide] |
| 257 | Cn1nc(-c2nc3cc(N[C@H](C(N)=O)C4CC4)cc4c3n2CCCO4)ccc1=O [Example 129, (S)-2-Cyclopropyl-2-((1-(1-methyl-6-oxo-1,6-dihydropyridazin-3-yl)-8,9-dihydro-7H-6-oxa-2,9a-diazabenzo[cd]azulen-4-yl)amino)acetamide] |
| 7.67 | COc1ncc(-c2nc3cc(N[C@H](C(N)=O)C4CC4)cc4c3n2CCCO4)cc1Cl [Example 130, (S)-2-((1-(5-Chloro-6-methoxypyridin-3-yl)-8,9-dihydro-7H-6-oxa-2,9a-diazabenzo[cd]azulen-4-yl)amino)-2-cyclopropylacetamide] |
| 1.6 | NC(=O)[C@@H](Nc1cc2c3c(c1)nc(-c1ccn4ncnc4c1)n3CCCO2)C1CC1 [Example 132, (S)-2-((1-([1,2,4]Triazolo[1,5-a]pyridin-7-yl)-8,9-dihydro-7H-6-oxa-2,9a-diazabenzo[cd]azulen-4-yl)amino)-2-cyclopropylacetamide] |
| 242 | NC(=O)[C@@H](Nc1cc2c3c(c1)nc(-c1cncnc1)n3CCCO2)C1CC1 [Example 134, (S)-2-Cyclopropyl-2-((1-(pyrimidin-5-yl)-8,9-dihydro-7H-6-oxa-2,9a-diazabenzo[cd]azulen-4-yl)amino)acetamide] |
| 76.4 | NC(=O)[C@@H](Nc1cc2c3c(c1)nc(-c1cncs1)n3CCCO2)C1CC1 [Example 136, (S)-2-Cyclopropyl-2-((1-(thiazol-5-yl)-8,9-dihydro-7H-6-oxa-2,9a-diazabenzo[cd]azulen-4-yl)amino)acetamide] |
| 22.9 | NC(=O)[C@@H](Nc1cc2c3c(c1)nc(-c1ccc4c(c1)OCCO4)n3CCCO2)C1CC1 [Example 138, (S)-2-Cyclopropyl-2-((1-(2,3-dihydrobenzo[b][1,4]dioxin-6-yl)-8,9-dihydro-7H-6-oxa-2,9a-diazabenzo[cd]azulen-4-yl)amino)acetamide] |
| 288 | C[C@H](Nc1cc2c3c(c1)nc(N1CCC[C@@H](CO)C1)n3CCCO2)C(N)=O [Example 139, (S)-2-[1-((R)-3-Hydroxymethylpiperidin-1-yl)-8,9-dihydro-7H-6-oxa-2,9a-diazabenzo[cd]azulen-4-ylamino]propionamide] |
| 681 | C[C@H](Nc1cc2c3c(c1)nc(N1CCC(CO)CC1)n3CCCO2)C(N)=O [Example 140, (S)-2-[1-(4-Hydroxymethylpiperidin-1-yl)-8,9-dihydro-7H-6-oxa-2,9a-diazabenzo[cd]azulen-4-ylamino]propionamide] |
| 740 | NC(=O)[C@@H](Nc1cc2c3c(c1)nc(N1CCOCC1)n3CCCO2)C1CC1 [Example 141, (S)-2-Cyclopropyl-2-((1-morpholino-8,9-dihydro-7H-6-oxa-2,9a-diazabenzo[cd]azulen-4-yl)amino)acetamide] |
| 340 | COc1ccc(-c2nc3cc(N[C@H](C(N)=O)C4CC4)cc4c3n2CCCO4)c(F)c1 [Example 144, (S)-2-Cyclopropyl-2-((1-(2-fluoro-4-methoxyphenyl)-8,9-dihydro-7H-6-oxa-2,9a-diazabenzo[cd]azulen-4-yl)amino)acetamide] |
| 382 | NC(=O)[C@@H](Nc1cc2c3c(c1)nc(-c1ccc(F)cc1F)n3CCCO2)C1CC1 [Example 145, (S)-2-Cyclopropyl-2-((1-(2,4-difluorophenyl)-8,9-dihydro-7H-6-oxa-2,9a-diazabenzo[cd]azulen-4-yl)amino)acetamide] |
